Assay results: PubChem BioAssay (NCI)
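Briefly, cells in 96-well plates were exposed to five compound concentrations for 48 h, and endpoints were estimated by linear interpolation. Abbreviation: GI50, concentration required for 50% inhibition of growth. At the TGI there is no net growth.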

What was measured:
Experiment in all cases: NCI-60 cell line screen, 48 h
[1] = system: A498 renal
[2] = system: HT29 colon
[3] = system: IGROV1 ovarian
[4] = system: SN12C renal
[5] = system: A549 NSCLC
[6] = system: PC-3 prostate
[7] = system: NCI/ADR-RES ovarian
[8] = system: HOP-62 NSCLC
[9] = system: CAKI-1 renal
[10] = system: T-47D breast

Compound | GI50 [1] [µM] | TGI [1] [µM] | GI50 [2] [µM] | TGI [2] [µM] | GI50 [3] [µM] | TGI [3] [µM] | GI50 [4] [µM] | TGI [4] [µM] | GI50 [5] [µM] | TGI [5] [µM] | GI50 [6] [µM] | TGI [6] [µM] | GI50 [7] [µM] | TGI [7] [µM] | GI50 [8] [µM] | TGI [8] [µM] | GI50 [9] [µM] | TGI [9] [µM] | GI50 [10] [µM] | TGI [10] [µM]
C/C1=C\C/C=C(\C)[C@H]2CC(CC/C(C)=C/CC1)[C@](C)(C=O)O2 | 92.2 | > 100 | > 100 | > 100 | 18.2 | > 100 | > 100 | > 100 | > 100 | > 100 | 88.2 | > 100 | > 100 | > 100 | 40.6 | > 100 | 36.4 | 99.2 | > 100 | > 100
CC(O)(CNS(=O)(=O)c1ccccc1)c1ccccc1 (stereo not given) |  | > 100 |  | > 100 |  | > 100 |  | > 100 |  | > 100 |  | > 100 |  | > 100 |  | > 100 |  | > 100 |  | > 100
C1=C(c2ccccc2)C(c2ccc(OCCN3CCCCC3)cc2)Oc2ccccc21 (stereo not given) | 1.67 | 3.17 | 1.76 | 3.86 | 2.07 | 5.07 | 1.92 | 3.73 | 2.19 | 4.76 | 1.79 | 3.25 | 2.4 | 8.16 | 1.67 | 3.29 | 1.34 | 2.75 | 1.04 | 2.78
C[C@@H](Oc1ccc2[nH]nc(/C=C/c3cnn(CCO)c3)c2c1)c1c(Cl)cncc1Cl | < 0.01 | 0.274 | 0.171 | 0.681 | 0.135 | 5.04 | 0.121 | > 100 | 0.0938 | 5.79 | 1.41 | 7.4 | 0.697 | 3.81 | 0.108 | 3.06 | 0.184 | > 100 | 1.31 | 7.69
CS(=O)(=O)CCn1c(=O)c(Oc2ccc(F)cc2F)cc2cnc(NC3CCOCC3)nc21 | 15.8 | > 25 | > 25 | > 25 | > 25 | > 25 | > 25 | > 25 | > 25 | > 25 | > 25 | > 25 | > 25 | > 25 | > 25 | > 25 | > 25 | > 25 | > 25 | > 25
CC(=O)/C=C/C1=C(c2cccs2)c2ccccc2CC1 | 23.7 | 47.9 | 26.9 | 68.4 | 19.8 | 49.7 | 23.5 | 48.5 | 37.3 | > 100 | 40.7 | > 100 | 27.3 | 81.7 | 33.8 | 88 | 41 | > 100 | 23.7 | 53.5
NCCP(=O)(O)O |  | > 100 |  | > 100 |  | > 100 |  | > 100 |  | > 100 |  | > 100 |  | > 100 |  | > 100 |  | > 100 |  | > 100
COc1cc(NCC2COc3c(ccc(OC)c3OC)C2=O)c([N+](=O)[O-])cc1OC (stereo not given) |  | > 100 |  | > 100 |  | > 100 |  | > 100 |  | > 100 |  | > 100 |  | > 100 |  | > 100 |  | > 100 |  | > 100
